Experimental data reported in the supplement of paper PMC8671470.

Each molecule was assayed on myeloid leukemia patient primary cells Pat.4 (assay: cell viability (% survival relative to DMSO control); higher = less cytotoxic). Settings: 100 nM; 72 h.
In short: (§1)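 Thawed, Ficoll-purified mononuclear cells from AML or CML patients in RPMI 1640 with 10% FBS were seeded at 10,000 cells/well on 384-well plates pre-printed with 70 compounds at five tenfold concentrations, 1–10,000 nM, in duplicate, for 72 h. Viability was read by CellTiter-Glo and normalised to DMSO and 10 μM proteasome-inhibitor wells. Where given, area under the curve came from four-parameter log-logistic fits (drc, PharmacoGx R packages).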
Molecule C=C(C=NNC(=N)N)NNC(=N)N [Mitoguazone] has a cell viability of 48.1%.
Molecule COc1cc(/C=C/C(=O)N2CCC=CC2=O)cc(OC)c1OC [Piperlongumine] has a cell viability of 68.2%.
For CC[C@@]1(O)C(=O)OCc2c1cc1n(c2=O)Cc2cc3c(CN(C)C)c(O)ccc3nc2-1 [Topotecan], the cell viability was over 100%.

Same assay, conditions: 1000 nM; 72 h
For O=C1O/C(=C/Br)CCC1c1cccc2ccccc12 (configuration not stated) [Bromoenol Lactone], the cell viability was 53.4%.
With N#CC(C#N)=NNc1ccc(OC(F)(F)F)cc1 [FCCP] the cell viability was 53.6%.
O=C(O)Cn1nnc(-c2cc(N3CCC(Oc4cc(F)ccc4Br)CC3)no2)n1 [MK-8245] showed a cell viability of 97.3%.
For C=C(C=NNC(=N)N)NNC(=N)N [Mitoguazone], the cell viability was 92.3%.
COc1cc(/C=C/C(=O)N2CCC=CC2=O)cc(OC)c1OC [Piperlongumine] showed a cell viability of 53.9%.
CC[C@@]1(O)C(=O)OCc2c1cc1n(c2=O)Cc2cc3c(CN(C)C)c(O)ccc3nc2-1 [Topotecan] gave a cell viability of 82.5%.

Same assay, conditions: 10000 nM; 72 h
Molecule O=C1O/C(=C/Br)CCC1c1cccc2ccccc12 (configuration not stated) [Bromoenol Lactone] has a cell viability of 3.26%.
N#CC(C#N)=NNc1ccc(OC(F)(F)F)cc1 [FCCP] showed a cell viability of 4.18%.
Molecule O=C(O)Cn1nnc(-c2cc(N3CCC(Oc4cc(F)ccc4Br)CC3)no2)n1 [MK-8245] has a cell viability of over 100%.
C=C(C=NNC(=N)N)NNC(=N)N [Mitoguazone] showed a cell viability of 44.2%.
COc1cc(/C=C/C(=O)N2CCC=CC2=O)cc(OC)c1OC [Piperlongumine] gave a cell viability of under 0%.
In the case of CC[C@@]1(O)C(=O)OCc2c1cc1n(c2=O)Cc2cc3c(CN(C)C)c(O)ccc3nc2-1 [Topotecan], the cell viability is reported as 4.14%.

What follows are molecules tested on myeloid leukemia patient primary cells Pat.13 in the same assay as above. Settings: 1 nM; 72 h.
In short: as §1
O=C1O/C(=C/Br)CCC1c1cccc2ccccc12 (configuration not stated) [Bromoenol Lactone] was tested, and the cell viability was 80.2%.
N#CC(C#N)=NNc1ccc(OC(F)(F)F)cc1 [FCCP] gave a cell viability of 85%.
O=C(O)Cn1nnc(-c2cc(N3CCC(Oc4cc(F)ccc4Br)CC3)no2)n1 [MK-8245] showed a cell viability of 87.2%.
Work on C=C(C=NNC(=N)N)NNC(=N)N [Mitoguazone] yielded a cell viability of 88.3%.
With COc1cc(/C=C/C(=O)N2CCC=CC2=O)cc(OC)c1OC [Piperlongumine] the cell viability was 81.8%.
CC[C@@]1(O)C(=O)OCc2c1cc1n(c2=O)Cc2cc3c(CN(C)C)c(O)ccc3nc2-1 [Topotecan] showed a cell viability of 85.7%.

Same assay, conditions: 10 nM; 72 h
With O=C1O/C(=C/Br)CCC1c1cccc2ccccc12 (configuration not stated) [Bromoenol Lactone] the cell viability was 89.3%.
N#CC(C#N)=NNc1ccc(OC(F)(F)F)cc1 [FCCP] was tested, and the cell viability was over 100%.
With O=C(O)Cn1nnc(-c2cc(N3CCC(Oc4cc(F)ccc4Br)CC3)no2)n1 [MK-8245] the cell viability was 88.5%.
In the case of C=C(C=NNC(=N)N)NNC(=N)N [Mitoguazone], the cell viability is reported as 78.5%.
For COc1cc(/C=C/C(=O)N2CCC=CC2=O)cc(OC)c1OC [Piperlongumine], the cell viability was 98.3%.
CC[C@@]1(O)C(=O)OCc2c1cc1n(c2=O)Cc2cc3c(CN(C)C)c(O)ccc3nc2-1 [Topotecan] was tested, and the cell viability was 91.7%.

Same assay, conditions: 100 nM; 72 h
In the case of O=C1O/C(=C/Br)CCC1c1cccc2ccccc12 (configuration not stated) [Bromoenol Lactone], the cell viability is reported as 89.3%.
For N#CC(C#N)=NNc1ccc(OC(F)(F)F)cc1 [FCCP], the cell viability was 89.8%.
O=C(O)Cn1nnc(-c2cc(N3CCC(Oc4cc(F)ccc4Br)CC3)no2)n1 [MK-8245] was tested, and the cell viability was 99.8%.
C=C(C=NNC(=N)N)NNC(=N)N [Mitoguazone] showed a cell viability of 91.2%.
In the case of COc1cc(/C=C/C(=O)N2CCC=CC2=O)cc(OC)c1OC [Piperlongumine], the cell viability is reported as 76%.
For CC[C@@]1(O)C(=O)OCc2c1cc1n(c2=O)Cc2cc3c(CN(C)C)c(O)ccc3nc2-1 [Topotecan], the cell viability was 92.3%.

Same assay, conditions: 1000 nM; 72 h
O=C1O/C(=C/Br)CCC1c1cccc2ccccc12 (configuration not stated) [Bromoenol Lactone] gave a cell viability of 82.2%.
N#CC(C#N)=NNc1ccc(OC(F)(F)F)cc1 [FCCP] gave a cell viability of 59.4%.
Work on O=C(O)Cn1nnc(-c2cc(N3CCC(Oc4cc(F)ccc4Br)CC3)no2)n1 [MK-8245] yielded a cell viability of 95.8%.
In the case of C=C(C=NNC(=N)N)NNC(=N)N [Mitoguazone], the cell viability is reported as 50.8%.
COc1cc(/C=C/C(=O)N2CCC=CC2=O)cc(OC)c1OC [Piperlongumine] showed a cell viability of 69%.
CC[C@@]1(O)C(=O)OCc2c1cc1n(c2=O)Cc2cc3c(CN(C)C)c(O)ccc3nc2-1 [Topotecan] was tested, and the cell viability was 97.4%.

Same assay, conditions: 10000 nM; 72 h
With O=C1O/C(=C/Br)CCC1c1cccc2ccccc12 (configuration not stated) [Bromoenol Lactone] the cell viability was 28.1%.
With N#CC(C#N)=NNc1ccc(OC(F)(F)F)cc1 [FCCP] the cell viability was 4.66%.
O=C(O)Cn1nnc(-c2cc(N3CCC(Oc4cc(F)ccc4Br)CC3)no2)n1 [MK-8245] gave a cell viability of 95.5%.
Work on C=C(C=NNC(=N)N)NNC(=N)N [Mitoguazone] yielded a cell viability of over 100%.
For COc1cc(/C=C/C(=O)N2CCC=CC2=O)cc(OC)c1OC [Piperlongumine], the cell viability was 21.2%.
CC[C@@]1(O)C(=O)OCc2c1cc1n(c2=O)Cc2cc3c(CN(C)C)c(O)ccc3nc2-1 [Topotecan] showed a cell viability of 21.9%.

These molecules were tested on myeloid leukemia patient primary cells Pat.15 in the same assay as above. Settings: 1 nM; 72 h.
In short: as §1
O=C1O/C(=C/Br)CCC1c1cccc2ccccc12 (configuration not stated) [Bromoenol Lactone] was tested, and the cell viability was 89.3%.
N#CC(C#N)=NNc1ccc(OC(F)(F)F)cc1 [FCCP] showed a cell viability of 91.2%.
O=C(O)Cn1nnc(-c2cc(N3CCC(Oc4cc(F)ccc4Br)CC3)no2)n1 [MK-8245] gave a cell viability of 95.9%.
For C=C(C=NNC(=N)N)NNC(=N)N [Mitoguazone], the cell viability was 89.7%.
COc1cc(/C=C/C(=O)N2CCC=CC2=O)cc(OC)c1OC [Piperlongumine] gave a cell viability of 84%.
CC[C@@]1(O)C(=O)OCc2c1cc1n(c2=O)Cc2cc3c(CN(C)C)c(O)ccc3nc2-1 [Topotecan] gave a cell viability of 95.4%.

Same assay, conditions: 10 nM; 72 h
O=C1O/C(=C/Br)CCC1c1cccc2ccccc12 (configuration not stated) [Bromoenol Lactone] gave a cell viability of 91.6%.
For N#CC(C#N)=NNc1ccc(OC(F)(F)F)cc1 [FCCP], the cell viability was 99.1%.
Work on O=C(O)Cn1nnc(-c2cc(N3CCC(Oc4cc(F)ccc4Br)CC3)no2)n1 [MK-8245] yielded a cell viability of 91.5%.
Molecule C=C(C=NNC(=N)N)NNC(=N)N [Mitoguazone] has a cell viability of 82.8%.
COc1cc(/C=C/C(=O)N2CCC=CC2=O)cc(OC)c1OC [Piperlongumine] was tested, and the cell viability was 96.2%.
In the case of CC[C@@]1(O)C(=O)OCc2c1cc1n(c2=O)Cc2cc3c(CN(C)C)c(O)ccc3nc2-1 [Topotecan], the cell viability is reported as 89.4%.

Same assay, conditions: 100 nM; 72 h
For O=C1O/C(=C/Br)CCC1c1cccc2ccccc12 (configuration not stated) [Bromoenol Lactone], the cell viability was 96.4%.
With N#CC(C#N)=NNc1ccc(OC(F)(F)F)cc1 [FCCP] the cell viability was 94.5%.
Molecule O=C(O)Cn1nnc(-c2cc(N3CCC(Oc4cc(F)ccc4Br)CC3)no2)n1 [MK-8245] has a cell viability of 93.5%.
Work on C=C(C=NNC(=N)N)NNC(=N)N [Mitoguazone] yielded a cell viability of 91.4%.
In the case of COc1cc(/C=C/C(=O)N2CCC=CC2=O)cc(OC)c1OC [Piperlongumine], the cell viability is reported as 98.5%.
Molecule CC[C@@]1(O)C(=O)OCc2c1cc1n(c2=O)Cc2cc3c(CN(C)C)c(O)ccc3nc2-1 [Topotecan] has a cell viability of 83.5%.

Same assay, conditions: 1000 nM; 72 h
O=C1O/C(=C/Br)CCC1c1cccc2ccccc12 (configuration not stated) [Bromoenol Lactone] was tested, and the cell viability was 89%.
N#CC(C#N)=NNc1ccc(OC(F)(F)F)cc1 [FCCP] gave a cell viability of 81.5%.
Molecule O=C(O)Cn1nnc(-c2cc(N3CCC(Oc4cc(F)ccc4Br)CC3)no2)n1 [MK-8245] has a cell viability of over 100%.
With C=C(C=NNC(=N)N)NNC(=N)N [Mitoguazone] the cell viability was 69.4%.
With COc1cc(/C=C/C(=O)N2CCC=CC2=O)cc(OC)c1OC [Piperlongumine] the cell viability was 70.3%.
CC[C@@]1(O)C(=O)OCc2c1cc1n(c2=O)Cc2cc3c(CN(C)C)c(O)ccc3nc2-1 [Topotecan] was tested, and the cell viability was 54.8%.

Same assay, conditions: 10000 nM; 72 h
O=C1O/C(=C/Br)CCC1c1cccc2ccccc12 (configuration not stated) [Bromoenol Lactone] was tested, and the cell viability was 3.92%.
Work on N#CC(C#N)=NNc1ccc(OC(F)(F)F)cc1 [FCCP] yielded a cell viability of 3.23%.
Work on O=C(O)Cn1nnc(-c2cc(N3CCC(Oc4cc(F)ccc4Br)CC3)no2)n1 [MK-8245] yielded a cell viability of 95.2%.
Molecule C=C(C=NNC(=N)N)NNC(=N)N [Mitoguazone] has a cell viability of 19.6%.
Molecule COc1cc(/C=C/C(=O)N2CCC=CC2=O)cc(OC)c1OC [Piperlongumine] has a cell viability of 1.42%.
CC[C@@]1(O)C(=O)OCc2c1cc1n(c2=O)Cc2cc3c(CN(C)C)c(O)ccc3nc2-1 [Topotecan] gave a cell viability of 0.856%.

These molecules were tested on MV4-11 (assay: cell viability (% survival relative to DMSO control, bortezomib = 0%); higher = less cytotoxic). Settings: 1 nM; 72 h.
In short: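 In 384-well plates pre-printed with compounds at 1, 10, 100, 1000 or 10000 nM, duplicate wells received cells from 10 AML and 5 CML lines at densities within the linear growth range. The plates stayed at 37 °C with 5% CO2 for 72 h before CellTiter-Glo luminescence was recorded. Each entry is averaged percent survival. Scaling placed vehicle at 100% and a 10 µM positive control at 0%.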
In the case of O=C1O/C(=C/Br)CCC1c1cccc2ccccc12 (configuration not stated) [Bromoenol Lactone], the cell viability is reported as 99%.
In the case of N#CC(C#N)=NNc1ccc(OC(F)(F)F)cc1 [FCCP], the cell viability is reported as 104%.
With O=C(O)Cn1nnc(-c2cc(N3CCC(Oc4cc(F)ccc4Br)CC3)no2)n1 [MK-8245] the cell viability was 96.8%.
C=C(C=NNC(=N)N)NNC(=N)N [Mitoguazone] showed a cell viability of 105%.
COc1cc(/C=C/C(=O)N2CCC=CC2=O)cc(OC)c1OC [Piperlongumine] gave a cell viability of 95%.
With CC[C@@]1(O)C(=O)OCc2c1cc1n(c2=O)Cc2cc3c(CN(C)C)c(O)ccc3nc2-1 [Topotecan] the cell viability was 91.1%.

Same assay, conditions: 10 nM; 72 h
O=C1O/C(=C/Br)CCC1c1cccc2ccccc12 (configuration not stated) [Bromoenol Lactone] was tested, and the cell viability was 106%.
In the case of N#CC(C#N)=NNc1ccc(OC(F)(F)F)cc1 [FCCP], the cell viability is reported as 101%.
Molecule O=C(O)Cn1nnc(-c2cc(N3CCC(Oc4cc(F)ccc4Br)CC3)no2)n1 [MK-8245] has a cell viability of 91.6%.
With C=C(C=NNC(=N)N)NNC(=N)N [Mitoguazone] the cell viability was 99.2%.
In the case of COc1cc(/C=C/C(=O)N2CCC=CC2=O)cc(OC)c1OC [Piperlongumine], the cell viability is reported as 90.4%.
CC[C@@]1(O)C(=O)OCc2c1cc1n(c2=O)Cc2cc3c(CN(C)C)c(O)ccc3nc2-1 [Topotecan] was tested, and the cell viability was 54.2%.

Same assay, conditions: 100 nM; 72 h
O=C1O/C(=C/Br)CCC1c1cccc2ccccc12 (configuration not stated) [Bromoenol Lactone] showed a cell viability of 105%.
N#CC(C#N)=NNc1ccc(OC(F)(F)F)cc1 [FCCP] gave a cell viability of 98.9%.
With O=C(O)Cn1nnc(-c2cc(N3CCC(Oc4cc(F)ccc4Br)CC3)no2)n1 [MK-8245] the cell viability was 92.4%.
Molecule C=C(C=NNC(=N)N)NNC(=N)N [Mitoguazone] has a cell viability of 115%.
COc1cc(/C=C/C(=O)N2CCC=CC2=O)cc(OC)c1OC [Piperlongumine] gave a cell viability of 89.7%.
CC[C@@]1(O)C(=O)OCc2c1cc1n(c2=O)Cc2cc3c(CN(C)C)c(O)ccc3nc2-1 [Topotecan] showed a cell viability of 2%.

Same assay, conditions: 1000 nM; 72 h
O=C1O/C(=C/Br)CCC1c1cccc2ccccc12 (configuration not stated) [Bromoenol Lactone] showed a cell viability of 92.4%.
In the case of N#CC(C#N)=NNc1ccc(OC(F)(F)F)cc1 [FCCP], the cell viability is reported as 88.5%.
O=C(O)Cn1nnc(-c2cc(N3CCC(Oc4cc(F)ccc4Br)CC3)no2)n1 [MK-8245] was tested, and the cell viability was 116%.
C=C(C=NNC(=N)N)NNC(=N)N [Mitoguazone] showed a cell viability of 59.8%.
